Data set [1] has as its target T1, Human recombinant sEH (Homo sapiens, UniProt P34913).
T1 construct: made in house; host or cells: Sf9 insect cells (recombinant baculovirus)
T1 sequence (P34913 1-555): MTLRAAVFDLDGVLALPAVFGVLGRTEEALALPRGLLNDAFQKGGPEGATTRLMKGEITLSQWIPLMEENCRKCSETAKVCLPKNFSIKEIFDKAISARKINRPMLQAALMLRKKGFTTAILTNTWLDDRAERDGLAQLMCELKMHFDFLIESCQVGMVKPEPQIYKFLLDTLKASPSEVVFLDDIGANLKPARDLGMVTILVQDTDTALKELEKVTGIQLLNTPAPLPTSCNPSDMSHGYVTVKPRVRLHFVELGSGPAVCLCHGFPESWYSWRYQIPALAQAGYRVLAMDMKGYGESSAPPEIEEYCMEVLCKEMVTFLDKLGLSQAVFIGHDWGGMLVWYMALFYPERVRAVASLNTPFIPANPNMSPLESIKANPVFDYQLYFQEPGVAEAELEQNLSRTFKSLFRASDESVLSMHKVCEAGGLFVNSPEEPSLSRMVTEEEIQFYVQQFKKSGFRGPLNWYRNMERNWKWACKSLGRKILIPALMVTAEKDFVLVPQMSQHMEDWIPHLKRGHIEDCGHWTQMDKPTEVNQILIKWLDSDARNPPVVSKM
In words: Cell-free sEH activity (PHOME fluorescence). Format: biochemical. The conditions noted are these: human isolated sEH. The method, then: Human recombinant sEH was expressed in Sf9 insect cells and purified by affinity chromatography. […] Elution with 4-fluorochalcone oxide in PBS pH 7.4 with 1 mM dithiothreitol and 1 mM EDTA yielded sEH, which was dialyzed and concentrated. Purified sEH (60 ng) in 25 mM Tris HCl pH 7 with 0.1 mg/mL bovine serum albumin (BSA) was preincubated with the vehicle (DMSO) or test compounds for 1 min at room temperature. The sEH substrate PHOME (20 μM, Cayman Chemicals) was added to start the enzymatic reaction, which was stopped after 60 min in the dark by the addition of ZnSO4 (200 mM).

A short description of data set [2]: Mouse plasma stability. The conditions noted are these: 37 °C, 5 μM. Format: in vitro ADME. As for the experimental part: Mouse plasma is warmed to 37 °C for 10 min, mixed, and centrifuged to pellet any aggregated protein. Biotransformation is initiated by adding 1.25 μL of compound solution (5 μM final incubation concentration), and the incubation was carried out at 37 °C for 120 min in a Thermomixer comfort (Eppendorf, Hamburg, Germany). At each specified time point (0, 60, and 120 min), compounds were removed into 200 μL of ice-cold methanol containing IS to stop degradation. Finally, the concentration of the test compound was quantified by LC-MS. All experiments were performed in triplicate. Procaine (low stability) and procainamide (high stability) were used as controls.

Data set [3] addresses T2, 5-LOX (Homo sapiens, UniProt P09917).
T2 sequence (P09917 1-674): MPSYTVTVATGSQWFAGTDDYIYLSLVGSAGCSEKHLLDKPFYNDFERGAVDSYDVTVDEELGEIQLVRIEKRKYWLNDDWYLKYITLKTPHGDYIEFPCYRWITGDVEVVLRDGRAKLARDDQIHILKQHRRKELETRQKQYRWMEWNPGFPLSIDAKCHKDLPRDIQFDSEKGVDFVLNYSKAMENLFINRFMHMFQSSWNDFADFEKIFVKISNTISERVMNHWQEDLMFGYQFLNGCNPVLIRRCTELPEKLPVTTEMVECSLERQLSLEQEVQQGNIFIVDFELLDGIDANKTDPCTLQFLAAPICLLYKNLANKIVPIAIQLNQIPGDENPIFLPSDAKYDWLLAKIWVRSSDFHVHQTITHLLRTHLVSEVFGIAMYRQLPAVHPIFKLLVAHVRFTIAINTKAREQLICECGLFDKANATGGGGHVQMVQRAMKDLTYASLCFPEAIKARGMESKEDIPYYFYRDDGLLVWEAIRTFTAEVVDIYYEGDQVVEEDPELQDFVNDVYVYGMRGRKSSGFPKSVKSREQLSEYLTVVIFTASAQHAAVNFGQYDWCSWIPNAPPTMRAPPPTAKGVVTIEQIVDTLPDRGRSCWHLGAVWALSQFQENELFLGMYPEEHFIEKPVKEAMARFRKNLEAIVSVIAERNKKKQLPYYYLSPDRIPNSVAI
The data set is described as follows: Cell-free 5-LOX activity assay. Format: biochemical. Set-up: made in house; host or cells: Escherichia coli Bl21 (DE3). The following applies: human isolated 5-LOX. As for the experimental part:
Human recombinant 5-LOX was expressed in Escherichia coli Bl21 (DE3) cells that were transformed with the plasmid pT3-5LO (wt 5-LOX) and purified on an adenosine triphosphate (ATP)-agarose column by affinity chromatography.[40],[41] In a first step, E. coli was lysed in 50 mM triethanolamine/HCl pH 8.0 with ethylenediamine tetraacetic acid (EDTA) (5 mM), soybean trypsin inhibitor (60 μg/mL), phenylmethanesulfonyl fluoride (1 mM), dithiothreitol (1 mM), and lysozyme (1 mg/mL) and sonicated 3 times for 15 s. The homogenate was centrifuged at 40,000g for 20 min at 4 °C. The supernatant was transferred to an ATP-agarose column (Sigma-Aldrich, Deisenhofen, Germany), which was sequentially washed with phosphate-buffered saline (PBS) pH 7.4, 1 mM EDTA, 50 mM phosphate buffer pH 7.4, 0.5 M NaCl, 1 mM EDTA, and finally 50 mM phosphate buffer pH 7.4 plus 1 mM EDTA. The enzyme was eluted with 50 mM phosphate buffer pH 7.4, 1 mM EDTA, and 20 mM ATP.
5-LOX product formation was started by the addition of 20 μM arachidonic acid (Sigma-Aldrich) and CaCl2 (2 mM) and stopped by the addition of an equal volume of ice-cold methanol containing PGB1 (200 ng) as internal standard after 10 min at 37 °C.

Among the data in publication PMC10350924, “Design, Synthesis, and Pharmacological Characterization of a Potent Soluble Epoxide Hydrolase Inhibitor for the Treatment of Acute Pancreatitis” (Journal of Medicinal Chemistry, 2023) are IC50 and mouse plasma stability values, retold here.

Each structure is given as a SMILES string.

Regarding `O=C(NCC12C[C@H]3C[C@@H](C1)C[C@@H](C2)C3)Nc1ccc2c(ccn2C(=O)c2ccc(F)cc2)c1` [Compound 36, 1-(((3R,5R,7R)-Adamantan-1-yl)methyl)-3-(1-(4-fluorobenzoyl)-1H-indol-5-yl)urea], the IC50 (as a rule, the concentration that inhibits the measured activity by half) in data set [1] is 2.6 ± 0.4 nM; in data set [3] it was > 1000 nM. For the same compound, the mouse plasma stability in data set [2] (1.0 h) came to 98.2 ± 2.0%; in data set [2] (2.0 h), 96.2 ± 2.8%.

Take `O=C(NCC12C[C@H]3C[C@@H](C1)C[C@@H](C2)C3)Nc1ccc2c(ccn2CCc2ccc(F)cc2)c1` [Compound 30, 1-(((3R,5R,7R)-Adamantan-1-yl)methyl)-3-(1-(4-fluorophenethyl)-1H-indol-5-yl)urea]: the IC50 in data set [1] was 1.1 ± 0.4 nM; in data set [3], > 1000 nM. Also, the mouse plasma stability was found to be 96.2 ± 3.4% in data set [2] (1.0 h) and 97.0 ± 2.3% in data set [2] (2.0 h).

Regarding `O=C(Nc1ccc2c(c1)CCN2Cc1ccc(F)cc1)NC12C[C@H]3C[C@@H](C1)C[C@@H](C2)C3` [Compound 6, 1-((3S,5S,7S)-Adamantan-1-yl)-3-(1-(4-fluorobenzyl)indolin-5-yl)urea], the IC50 stood at 7.22 ± 1.11 nM in data set [1] and 71 ± 16 nM in data set [3]. Also, the mouse plasma stability in data set [2] (1.0 h) is listed as 97.3 ± 0.7%; in data set [2] (2.0 h) it was 100.7 ± 2.3%.

As for `O=C(NCC12C[C@H]3C[C@@H](C1)C[C@@H](C2)C3)Nc1ccc2c(ccn2Cc2ccc(F)cc2)c1` [Compound 27, 1-(((3R,5R,7R)-Adamantan-1-yl)methyl)-3-(1-(4-fluorobenzyl)-1H-indol-5-yl)urea], the IC50 in data set [1] was 1.75 ± 0.593 nM; in data set [3], > 1000 nM. Besides, the mouse plasma stability in data set [2] (1.0 h) was 100.3 ± 0.2%; in data set [2] (2.0 h), 102.2 ± 4.8%.

With `CC(C)c1ccc(Cn2ccc3cc(NC(=O)NCC45C[C@H]6C[C@@H](C4)C[C@@H](C5)C6)ccc32)cc1` [Compound 28, 1-(((3R,5R,7R)-Adamantan-1-yl)methyl)-3-(1-(4-isopropylbenzyl)-1H-indol-5-yl)urea], the IC50 in data set [1] is 2 ± 1.1 nM; in data set [3], > 1000 nM. For the same compound, the results for the mouse plasma stability in data set [2] (1.0 h) and in data set [2] (2.0 h) were 98.4 ± 3.3% and 101.3 ± 3.8%, respectively.
